Reference: patent EP4548971A1, “1,4-BENZOTHIAZEPINES AND RELATED COMPOUNDS WITH CYCLOPROPANOL GROUPS AS MULTI-TARGETED DRUGS” (Georg-August-Universität Göttingen Stiftung Öffentlichen …, priority 2023, dated 2025)

Legend:
[1] = Membrane permeability, PermeaPad plate (cell-free transport model); assay type: in vitro ADME; conditions: for Pe: permeability rate, room temperature, 24 hours
Description: Membrane permeability was assessed using PermeaPad® Plate according to the manufacturing procedure (innoME GmbH, Espelkamp, Germany). Briefly, 200 µl water was added into acceptor plate. 200 µl of 100 - 500 µM test compound in water was added directly to the well membranes of the donor plate. The donor plate contains a biomimetic membrane for simulating passive mass transfer through different barriers in the body. Then the donor plate was placed into the acceptor plate wells and incubated at room temperature for 24 hours in dark. To determine peak absorbance of test compounds, absorbance spectra of acceptor solutions and initial solutions for each test compound were read out. The Permeability Rate (Pe) was calculated using the formula: Pe = C × −ln(1−(ODA)/(ODE)) cm/s, [formula]
where ODA is the absorbance of acceptor solution, ODE is the absorbance of the standard solution; if the compound is able to permeabilize the membrane and fully reach equilibrium, 250 µM will be the final concentration of solution in the donor and acceptor wells. The coefficient C was calculated using the formula: C = (VD × VA)/((VD+VA) × Area × time), [formula] where VA - acceptor volume (cm^3), VD - donor volume (cm^3), membrane area 0.24 cm^2, time is 86,400 s.
The membrane permeability of the derivatives was determined using cell-free transport models (PermeaPad®, innoME GmbH), and permeability rates (Pe), which are a measure of how fast a compound can cross a membrane, were established (Table 1).

WT RyR2 = target: T1, WT RyR2 (Mus musculus, UniProt E9Q401); assay: Time-lapse [Ca2+]ER assay (RyR2 R-CEPIA1er assay) in HEK-293 cells; assay type: cell-based; conditions: for RyR2 effect class: 25 µM in RyR2 R-CEPIA1er assay; for effect on [Ca^2+]ER (R-CEPIA1er fluorescence), in words: 25 µM, vs. 0.1 v/v% DMSO; for EC50: HEK-293 WT RyR2 R-CEPIA1er cells, range after the semicolon is not explained
T1 construct: expressed in transfected cells
Description: HEK-293 cells stably expressing R-CEPIA1er and WT RyR2 (generous gift from Takashi Murayama, Juntendo University School of Medicine, Tokyo) were cultured in Dulbecco's Modified Eagle medium (DMEM, Thermo Fisher Scientific, Darmstadt, Germany) supplemented with 10% fetal bovine serum (FBS, Thermo Fisher Scientific, Darmstadt, Germany), 0.9% Penicillin/Streptomycin (Merck KGaA, Darmstadt, Germany), 15ug/mL Blasticidine (Invivogen, Toulouse, France), 100 µg/mL Hygromycin (Merck KGaA, Darmstadt, Germany) and 400 µg/mL G418 (Thermo Fisher Scientific, Darmstadt, Germany) in a humidified 5% COz incubator at 37 °C. To induce the expression of WT RyR2 in the endoplasmic reticulum (ER), 2 µg/mL Doxycycline (Merck KGaA, Darmstadt, Germany) was added 24 h before experiments.
The fluorescent plate reader [Ca^2+]ER assay was performed according to the slightly modified protocol of Murayama & Kurebayashi [T. Murayama, N. Kurebayashi, Assays for Modulators of Ryanodine Receptor (RyR)/Ca(2+) Release Channel Activity for Drug Discovery for Skeletal Muscle and Heart Diseases. Curr. Protoc. […] After the cells were inducted with Doxycycline for 24 h, changes in ER calcium concentrations [Ca^2+]ER were measured on a multiwell plate reader TECAN Spark 20M at 37 °C. The 1000 × stock solutions of the test compounds were prepared in DMSO. Briefly, the culture medium was removed and 100 µl of Tyrode's solution containing 2 mM CaCl2 was added to the cells. The time courses were recorded in each well. Fluorescence was evoked by 560 nm excitation wavelength and collected in a bottom-read mode at 610 nm. Data was recorded every 10 s, exposure - 20 flashes, excitation bandwidth - 20 nm, emission bandwidth - 20 nm. 100 µl of 0 - 100 µM solution of test compound in Tyrode's solution containing 2 mM CaCh was injected in each well (speed 100 µl/s) at the 90 s time point. […] The 0.1 v/v% DMSO and 2 mM CaCh Tyrode's solution was used as a control.
The dose response curves were calculated using the software package GraphPad Prism version 8.3.1. (GraphPad Software, Inc.). All data are presented as mean ± S.D. in 3 independent experiments. Y=Bottom + (Top-Bottom)/(1+10^((LogEC50-X)*HillSlope)) was used where HillSlope describes the steepness of the curve, Top and Bottom are plateaus in the units of the Y axis.
The inventors measured changes in Ca^2+ levels in the endoplasmic reticulum (ER) of HEK-293 cells with inducible expression of wild-type RyR2 (WT RyR2) [T. Murayama, N. Kurebayashi, M. Ishigami-Yuasa, S. Mori, Y. Suzuki, R. Akima, H. Ogawa, J. Suzuki, K. Kanemaru, H. Oyamada, Y. Kiuchi, M. Iino, H. Kagechika, T. Sakurai, Efficient High-Throughput Screening by Endoplasmic Reticulum Ca(2+) Measurement to Identify Inhibitors of Ryanodine Receptor Ca(2+)-Release Channels. […] The cells additionally stably express the Ca^2+ fluorescence indicator R-CEPIA1er, which is a genetically encoded sensor protein of Ca^2+ in the ER ([Ca^2+]ER) [T. Murayama, N. Kurebayashi, Assays for Modulators of Ryanodine Receptor (RyR)/Ca(2+) Release Channel Activity for Drug Discovery for Skeletal Muscle and Heart Diseases. Curr. Protoc.
The fluorescence ratio F/F0 was calculated, where F0 - is the average fluorescence for the first 90 s, F - is the average fluorescence for the last 100 s, and normalized.

T1 sequence (E9Q401 whole entry): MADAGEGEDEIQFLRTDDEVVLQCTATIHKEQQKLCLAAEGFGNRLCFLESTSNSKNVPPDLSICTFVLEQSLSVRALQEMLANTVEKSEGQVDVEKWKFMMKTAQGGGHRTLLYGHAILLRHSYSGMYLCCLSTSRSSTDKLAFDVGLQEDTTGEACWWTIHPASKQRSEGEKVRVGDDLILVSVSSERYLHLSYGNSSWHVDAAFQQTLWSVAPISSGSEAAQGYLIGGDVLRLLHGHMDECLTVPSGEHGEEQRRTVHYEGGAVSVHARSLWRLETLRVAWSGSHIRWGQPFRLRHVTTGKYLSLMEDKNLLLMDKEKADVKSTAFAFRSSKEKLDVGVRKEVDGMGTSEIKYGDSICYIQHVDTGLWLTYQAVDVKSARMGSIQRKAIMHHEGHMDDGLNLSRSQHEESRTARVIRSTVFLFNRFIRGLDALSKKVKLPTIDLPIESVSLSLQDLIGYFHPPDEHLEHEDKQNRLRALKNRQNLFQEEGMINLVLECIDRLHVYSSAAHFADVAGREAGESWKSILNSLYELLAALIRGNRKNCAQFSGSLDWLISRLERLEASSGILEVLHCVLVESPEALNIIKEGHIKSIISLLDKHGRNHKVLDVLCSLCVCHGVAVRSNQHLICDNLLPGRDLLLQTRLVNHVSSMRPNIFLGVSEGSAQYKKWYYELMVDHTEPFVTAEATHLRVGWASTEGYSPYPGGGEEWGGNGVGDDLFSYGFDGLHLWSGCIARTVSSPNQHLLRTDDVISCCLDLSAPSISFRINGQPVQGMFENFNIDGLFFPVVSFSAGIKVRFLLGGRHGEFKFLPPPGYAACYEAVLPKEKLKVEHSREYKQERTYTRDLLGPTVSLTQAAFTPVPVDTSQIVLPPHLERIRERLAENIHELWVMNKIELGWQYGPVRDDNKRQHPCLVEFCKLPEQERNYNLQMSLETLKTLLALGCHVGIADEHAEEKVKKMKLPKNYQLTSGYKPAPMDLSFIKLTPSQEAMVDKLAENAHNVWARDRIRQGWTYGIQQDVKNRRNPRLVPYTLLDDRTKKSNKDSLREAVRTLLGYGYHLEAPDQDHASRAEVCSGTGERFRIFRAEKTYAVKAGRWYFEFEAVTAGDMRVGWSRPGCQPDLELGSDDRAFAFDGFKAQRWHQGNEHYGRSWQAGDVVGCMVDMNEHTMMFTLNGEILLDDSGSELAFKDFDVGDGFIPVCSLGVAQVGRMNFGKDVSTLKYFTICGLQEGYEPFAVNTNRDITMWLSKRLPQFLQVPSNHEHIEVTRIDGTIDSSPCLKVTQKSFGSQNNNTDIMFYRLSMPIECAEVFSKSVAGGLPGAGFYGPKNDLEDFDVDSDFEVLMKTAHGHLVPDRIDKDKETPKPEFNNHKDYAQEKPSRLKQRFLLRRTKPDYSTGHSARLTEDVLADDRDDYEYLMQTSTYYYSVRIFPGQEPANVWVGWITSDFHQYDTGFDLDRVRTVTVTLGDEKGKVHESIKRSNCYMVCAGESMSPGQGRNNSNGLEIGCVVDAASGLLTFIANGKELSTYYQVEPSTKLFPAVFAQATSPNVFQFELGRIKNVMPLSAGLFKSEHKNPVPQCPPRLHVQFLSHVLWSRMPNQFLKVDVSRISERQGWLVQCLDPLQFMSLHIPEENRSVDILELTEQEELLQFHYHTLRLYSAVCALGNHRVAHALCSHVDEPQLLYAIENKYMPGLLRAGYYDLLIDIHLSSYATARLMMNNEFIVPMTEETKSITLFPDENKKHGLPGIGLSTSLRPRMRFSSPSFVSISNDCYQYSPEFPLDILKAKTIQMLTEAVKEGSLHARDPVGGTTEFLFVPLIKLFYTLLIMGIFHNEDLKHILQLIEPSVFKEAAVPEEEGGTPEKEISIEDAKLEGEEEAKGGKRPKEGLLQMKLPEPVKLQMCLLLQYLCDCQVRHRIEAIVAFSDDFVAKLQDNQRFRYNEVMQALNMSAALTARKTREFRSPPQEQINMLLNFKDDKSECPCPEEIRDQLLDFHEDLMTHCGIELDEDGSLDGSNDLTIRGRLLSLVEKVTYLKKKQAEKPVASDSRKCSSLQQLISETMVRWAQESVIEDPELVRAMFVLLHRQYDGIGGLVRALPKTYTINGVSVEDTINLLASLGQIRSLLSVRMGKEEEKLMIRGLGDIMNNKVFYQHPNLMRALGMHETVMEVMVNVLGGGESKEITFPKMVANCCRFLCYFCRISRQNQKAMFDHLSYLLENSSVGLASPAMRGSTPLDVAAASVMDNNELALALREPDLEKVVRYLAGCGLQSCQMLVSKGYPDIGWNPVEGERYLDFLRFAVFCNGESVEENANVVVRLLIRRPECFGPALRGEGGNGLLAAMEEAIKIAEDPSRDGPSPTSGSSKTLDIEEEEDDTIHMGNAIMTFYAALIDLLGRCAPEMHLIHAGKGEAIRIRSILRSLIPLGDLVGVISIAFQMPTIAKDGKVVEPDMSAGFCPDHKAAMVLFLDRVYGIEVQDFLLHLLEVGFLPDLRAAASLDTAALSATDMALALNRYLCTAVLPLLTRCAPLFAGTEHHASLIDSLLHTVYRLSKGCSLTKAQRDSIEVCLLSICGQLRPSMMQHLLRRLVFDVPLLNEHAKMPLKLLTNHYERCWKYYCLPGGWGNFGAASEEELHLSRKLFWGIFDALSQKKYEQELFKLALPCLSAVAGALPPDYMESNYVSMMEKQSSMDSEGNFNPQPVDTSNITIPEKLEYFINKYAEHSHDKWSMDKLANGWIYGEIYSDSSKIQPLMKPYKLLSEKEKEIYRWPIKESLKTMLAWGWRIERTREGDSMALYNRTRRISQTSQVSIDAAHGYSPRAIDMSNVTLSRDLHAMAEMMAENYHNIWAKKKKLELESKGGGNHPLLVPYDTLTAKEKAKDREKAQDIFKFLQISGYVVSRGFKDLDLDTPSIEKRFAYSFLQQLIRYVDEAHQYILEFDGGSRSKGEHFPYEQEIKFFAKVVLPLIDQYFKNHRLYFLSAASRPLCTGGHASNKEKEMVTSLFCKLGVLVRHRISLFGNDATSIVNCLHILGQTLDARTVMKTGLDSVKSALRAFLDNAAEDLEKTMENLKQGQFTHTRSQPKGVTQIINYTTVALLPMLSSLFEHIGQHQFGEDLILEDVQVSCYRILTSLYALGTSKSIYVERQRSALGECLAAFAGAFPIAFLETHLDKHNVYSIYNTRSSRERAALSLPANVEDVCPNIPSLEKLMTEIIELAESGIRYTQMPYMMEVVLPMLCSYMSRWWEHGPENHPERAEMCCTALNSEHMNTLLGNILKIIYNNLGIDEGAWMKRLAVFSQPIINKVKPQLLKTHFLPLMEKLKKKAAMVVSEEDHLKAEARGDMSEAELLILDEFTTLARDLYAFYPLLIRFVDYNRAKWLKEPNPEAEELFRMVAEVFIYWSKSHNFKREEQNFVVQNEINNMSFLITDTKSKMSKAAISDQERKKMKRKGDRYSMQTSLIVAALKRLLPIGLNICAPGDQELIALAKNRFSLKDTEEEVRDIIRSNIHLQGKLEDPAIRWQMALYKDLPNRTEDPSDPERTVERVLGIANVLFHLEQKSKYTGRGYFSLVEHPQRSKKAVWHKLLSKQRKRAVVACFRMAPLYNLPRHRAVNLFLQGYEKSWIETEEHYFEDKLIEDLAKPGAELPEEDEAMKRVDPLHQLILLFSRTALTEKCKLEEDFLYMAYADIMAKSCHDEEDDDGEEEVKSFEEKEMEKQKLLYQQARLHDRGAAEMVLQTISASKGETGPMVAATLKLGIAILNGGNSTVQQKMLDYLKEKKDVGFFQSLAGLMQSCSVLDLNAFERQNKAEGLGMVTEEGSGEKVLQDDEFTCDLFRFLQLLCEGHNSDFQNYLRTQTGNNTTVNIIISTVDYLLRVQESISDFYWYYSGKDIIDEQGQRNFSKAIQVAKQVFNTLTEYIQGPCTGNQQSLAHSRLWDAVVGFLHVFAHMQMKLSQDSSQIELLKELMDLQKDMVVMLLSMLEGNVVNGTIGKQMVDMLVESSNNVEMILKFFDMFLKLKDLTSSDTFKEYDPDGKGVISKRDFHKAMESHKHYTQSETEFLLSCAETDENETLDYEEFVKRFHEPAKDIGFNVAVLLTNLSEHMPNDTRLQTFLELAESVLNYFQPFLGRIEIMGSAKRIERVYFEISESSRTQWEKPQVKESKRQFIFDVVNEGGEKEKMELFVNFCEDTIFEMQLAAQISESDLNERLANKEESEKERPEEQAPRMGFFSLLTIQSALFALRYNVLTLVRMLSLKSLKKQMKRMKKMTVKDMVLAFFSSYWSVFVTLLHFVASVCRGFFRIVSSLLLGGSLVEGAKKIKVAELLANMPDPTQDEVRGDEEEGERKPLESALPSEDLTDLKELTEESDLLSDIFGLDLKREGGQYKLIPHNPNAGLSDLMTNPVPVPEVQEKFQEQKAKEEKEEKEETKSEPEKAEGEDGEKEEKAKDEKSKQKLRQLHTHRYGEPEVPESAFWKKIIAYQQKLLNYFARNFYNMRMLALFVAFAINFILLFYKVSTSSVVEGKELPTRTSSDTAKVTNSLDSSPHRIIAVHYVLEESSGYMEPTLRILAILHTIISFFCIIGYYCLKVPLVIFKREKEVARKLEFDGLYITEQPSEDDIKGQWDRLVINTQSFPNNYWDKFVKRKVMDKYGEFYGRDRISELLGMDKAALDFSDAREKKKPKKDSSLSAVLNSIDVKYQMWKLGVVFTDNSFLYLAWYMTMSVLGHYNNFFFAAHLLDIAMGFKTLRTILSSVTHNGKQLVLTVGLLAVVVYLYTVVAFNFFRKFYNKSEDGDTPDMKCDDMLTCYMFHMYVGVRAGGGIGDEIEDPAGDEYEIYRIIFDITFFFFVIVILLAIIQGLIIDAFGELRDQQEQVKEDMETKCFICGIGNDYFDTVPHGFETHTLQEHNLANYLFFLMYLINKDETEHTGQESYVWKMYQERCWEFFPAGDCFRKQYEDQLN

For `COc1ccc2c(c1)CN(Cc1ccc(C(=O)O)cc1)CCS2` [ARM210, reference compound], the “Pe rating in words (low / medium / high; poor)” value [1] was “high”, the Pe [1] was 6.8 10^-6 cm/s and the RyR2 effect class (WT RyR2) was “++”. For the same compound, the “effect on [Ca^2+]ER (R-CEPIA1er fluorescence), in words” value (“effect on [Ca^2+]ER” below) (WT RyR2) was “significantly increased [Ca^2+]ER”.

In the case of `COc1ccc2c(c1)CN(CCCCNCCCCC1(O)CC1)CCS2` [Compound 13a, 1-(4-((4-(7-Methoxy-2,3-dihydrobenzo[1,4-f]-thiazepin-4(5H)-yl)butyl)amino)butyl)cyclopropan-1-ol], the “Pe rating in words (low / medium / high; poor)” value [1] is reported as “poor permeability and low”, the Pe [1] is reported as 0.8 10^-6 cm/s and the RyR2 effect class (WT RyR2) is reported as “++”.

In the case of `COc1ccc(OCCCNCCCCC2(O)CC2)cc1` [Compound 13b, 1-(4-((3-(4-methoxyphenoxy)propyl)amino)butyl)cyclopropan-1-ol], the “Pe rating in words (low / medium / high; poor)” value [1] is reported as “high”, the Pe [1] is reported as 4.0 10^-6 cm/s and the RyR2 effect class (WT RyR2) is reported as “+++”. For the same compound, the EC50 (WT RyR2) was 81.5 nM.

In the case of `COc1ccc(SCCCNCCCCC2(O)CC2)cc1` [Compound 13c, 1-(4-((3-((4-Methoxyphenyl)thio)propyl)amino)butyl)cyclopropan-1-ol], the “Pe rating in words (low / medium / high; poor)” value [1] is reported as “high”, the Pe [1] is reported as 6.9 10^-6 cm/s and the RyR2 effect class (WT RyR2) is reported as “++”. It also gave an EC50 (WT RyR2) of 10.2 nM.

With `COc1ccc2c(c1)CN(CCCCC1(O)CC1)CCS2` [Compound 13d, 1-(4-(7-methoxy-2,3-dihydrobenzo[1,4-f]thiazepin-4(5H)-yl)butyl)cyclopropan-1-ol] the “Pe rating in words (low / medium / high; poor)” value [1] was “high”, the Pe [1] was 3.6 10^-6 cm/s and the RyR2 effect class (WT RyR2) was “-”. The “effect on [Ca^2+]ER” value (WT RyR2) was “no significant RyR2-stabilizing effect”.

For `COc1ccc2c(c1)CN(CCCCN(CCCCC1(O)CC1)CCCCC1(O)CC1)CCS2` [Compound 14a, 1,1'-(((4-(7-Methoxy-2,3-dihydrobenzo[1,4-f]thiazepin-4(5H)-yl)butyl)azanediyl)bis(butane-4,1-diyl))bis(cyclopropan-1-ol)], the “Pe rating in words (low / medium / high; poor)” value [1] was “poor permeability and low”, the Pe [1] was 0.6 10^-6 cm/s and the RyR2 effect class (WT RyR2) was “+++”.

For `COc1ccc(SCCCN(CCCCC2(O)CC2)CCCCC2(O)CC2)cc1` [Compound 14c, 1,1'-(((3-((4-Methoxyphenyl)thio)propyl)azanediyl)bis(butane-4,1-diyl))bis(cyclopropan-1-ol)], the “Pe rating in words (low / medium / high; poor)” value [1] was “high”, the Pe [1] was 3.6 10^-6 cm/s and the RyR2 effect class (WT RyR2) was “+”. It also gave an EC50 (WT RyR2) of 18.6 nM.

In the case of `COc1ccc2c(c1)CN(C(=O)C(=O)O)CCS2` [Compound S36, reference compound], the “Pe rating in words (low / medium / high; poor)” value [1] is reported as “poor permeability and low”, the Pe [1] is reported as 1.0 10^-6 cm/s and the RyR2 effect class (WT RyR2) is reported as “+++”. For the same compound, the “effect on [Ca^2+]ER” value (WT RyR2) was “increase in R-CEPIA1er fluorescence”.
